Experimental data as given in ChEMBL document CHEMBL4507300 (2021).

Legend:
[1] = molecular target: Sigma intracellular receptor 2 (Homo sapiens, UniProt Q5BJF2); assay: GPCRScan assay: inhibition of Sigma 2; parameters: radioligand conc. used [nm] 5.0, parental cells HEKT
[2] = molecular target: AP2-associated protein kinase 1 (Homo sapiens) (UniProt Q2M2I8); conditions: Compound concentration 1000.0 nM
[3] = system: Tyrosine-protein kinase ABL1 (Homo sapiens), P00519 [E255K]; conditions: Compound concentration 1000.0 nM
[4] = system: Tyrosine-protein kinase ABL1 (Homo sapiens), P00519 [F317I]; conditions: Compound concentration 1000.0 nM
[5] = molecular target: Aurora kinase C (Homo sapiens) (UniProt Q9UQB9); conditions: Compound concentration 1000.0 nM
[6] = molecular target: Cyclin-dependent kinase 2 (Homo sapiens) (UniProt P24941); conditions: Compound concentration 1000.0 nM
[7] = molecular target: Dual specificity protein kinase CLK3 (Homo sapiens) (UniProt P49761); conditions: Compound concentration 1000.0 nM
[8] = molecular target: Casein kinase II subunit alpha (Homo sapiens) (UniProt P68400); conditions: Compound concentration 1000.0 nM
[9] = molecular target: Death-associated protein kinase 2 (Homo sapiens) (UniProt Q9UIK4); conditions: Compound concentration 1000.0 nM
[10] = molecular target: Discoidin domain-containing receptor 2 (Homo sapiens) (UniProt Q16832); conditions: Compound concentration 1000.0 nM
[11] = molecular target: Dual specificity tyrosine-phosphorylation-regulated kinase 1B (Homo sapiens) (UniProt Q9Y463); conditions: Compound concentration 1000.0 nM
[12] = molecular target: Ephrin type-A receptor 7 (Homo sapiens) (UniProt Q15375); conditions: Compound concentration 1000.0 nM
[13] = molecular target: Mitogen-activated protein kinase 1 (Homo sapiens) (UniProt P28482); conditions: Compound concentration 1000.0 nM
[14] = molecular target: Tyrosine-protein kinase Fgr (Homo sapiens) (UniProt P09769); conditions: Compound concentration 1000.0 nM
[15] = molecular target: Interleukin-1 receptor-associated kinase 3 (Homo sapiens) (UniProt Q9Y616); conditions: Compound concentration 1000.0 nM
[16] = molecular target: Mast/stem cell growth factor receptor Kit (Homo sapiens) (UniProt P10721); conditions: Compound concentration 1000.0 nM
[17] = molecular target: Mitogen-activated protein kinase kinase kinase kinase 3 (Homo sapiens) (UniProt Q8IVH8); conditions: Compound concentration 1000.0 nM
[18] = molecular target: Serine/threonine-protein kinase 24 (Homo sapiens) (UniProt Q9Y6E0); conditions: Compound concentration 1000.0 nM
[19] = molecular target: Myosin light chain kinase family member 4 (Homo sapiens) (UniProt Q86YV6); conditions: Compound concentration 1000.0 nM
[20] = molecular target: Serine/threonine-protein kinase Nek6 (Homo sapiens) (UniProt Q9HC98); conditions: Compound concentration 1000.0 nM
[21] = molecular target: Cyclin-dependent kinase 18 (Homo sapiens) (UniProt Q07002); conditions: Compound concentration 1000.0 nM
[22] = molecular target: Phosphorylase b kinase regulatory subunit alpha, liver isoform (Homo sapiens) (UniProt P46019); conditions: Compound concentration 1000.0 nM
[23] = system: Phosphatidylinositol 4,5-bisphosphate 3-kinase catalytic subunit alpha isoform (Homo sapiens), P42336 [E542K]; conditions: Compound concentration 1000.0 nM
[24] = molecular target: Phosphatidylinositol 4-phosphate 5-kinase type-1 gamma (Homo sapiens) (UniProt O60331); conditions: Compound concentration 1000.0 nM
[25] = molecular target: Protein kinase C theta type (Homo sapiens) (UniProt Q04759); conditions: Compound concentration 1000.0 nM
[26] = molecular target: Interferon-induced, double-stranded RNA-activated protein kinase (Homo sapiens) (UniProt P19525); conditions: Compound concentration 1000.0 nM
[27] = molecular target: Serine/threonine-protein kinase Sgk1 (Homo sapiens) (UniProt O00141); conditions: Compound concentration 1000.0 nM
[28] = molecular target: Serine/threonine-protein kinase Sgk2 (Homo sapiens) (UniProt Q9HBY8); conditions: Compound concentration 1000.0 nM
[29] = molecular target: SRSF protein kinase 2 (Homo sapiens) (UniProt P78362); conditions: Compound concentration 1000.0 nM
[30] = molecular target: Serine/threonine-protein kinase 33 (Homo sapiens) (UniProt Q9BYT3); conditions: Compound concentration 1000.0 nM
[31] = molecular target: Serine/threonine-protein kinase TAO1 (Homo sapiens) (UniProt Q7L7X3); conditions: Compound concentration 1000.0 nM
[32] = molecular target: Serine/threonine-protein kinase TBK1 (Homo sapiens) (UniProt Q9UHD2); conditions: Compound concentration 1000.0 nM
[33] = molecular target: Serine/threonine-protein kinase tousled-like 2 (Homo sapiens) (UniProt Q86UE8); conditions: Compound concentration 1000.0 nM
[34] = molecular target: TRAF2 and NCK-interacting protein kinase (Homo sapiens) (UniProt Q9UKE5); conditions: Compound concentration 1000.0 nM
[35] = molecular target: Activated CDC42 kinase 1 (Homo sapiens) (UniProt Q07912); conditions: Compound concentration 1000.0 nM
[36] = molecular target: Transient receptor potential cation channel subfamily M member 6 (Homo sapiens) (UniProt Q9BX84); conditions: Compound concentration 1000.0 nM
[37] = molecular target: Dual specificity protein kinase TTK (Homo sapiens) (UniProt P33981); conditions: Compound concentration 1000.0 nM
[38] = molecular target: Tyrosine-protein kinase TXK (Homo sapiens) (UniProt P42681); conditions: Compound concentration 1000.0 nM
[39] = molecular target: Serine/threonine-protein kinase VRK2 (Homo sapiens) (UniProt Q86Y07); conditions: Compound concentration 1000.0 nM
[40] = molecular target: Serine/threonine-protein kinase WNK4 (Homo sapiens) (UniProt Q96J92); conditions: Compound concentration 1000.0 nM
[41] = molecular target: Tyrosine-protein kinase Yes (Homo sapiens) (UniProt P07947); conditions: Compound concentration 1000.0 nM
[42] = molecular target: 5-hydroxytryptamine receptor 6 (Homo sapiens) (UniProt P50406); conditions: Compound concentration 10.0 uM
[43] = molecular target: GABA-A receptor; anion channel (Rattus norvegicus) (UniProt O09028+P15431+P18506+P18508+P19969+P20236+P23574+P23576+P28471+P28473+P30191+P62813+P63079+P63138+Q91ZM7+Q9ES14); conditions: Compound concentration 10.0 uM
[44] = molecular target: Alpha-1D adrenergic receptor (Homo sapiens) (UniProt P25100); conditions: Compound concentration 10.0 uM

Sequence of Sigma intracellular receptor 2 (Q5BJF2 whole entry): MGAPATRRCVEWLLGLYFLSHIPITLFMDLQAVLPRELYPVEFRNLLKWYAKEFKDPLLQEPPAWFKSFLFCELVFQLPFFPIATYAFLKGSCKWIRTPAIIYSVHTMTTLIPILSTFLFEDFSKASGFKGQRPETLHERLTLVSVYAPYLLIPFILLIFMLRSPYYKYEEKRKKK
Sequence of Phosphatidylinositol 4,5-bisphosphate 3-kinase catalytic subunit alpha isoform (Homo sapiens), P42336 [E542K] (P42336 whole entry E542K, canonical isoform): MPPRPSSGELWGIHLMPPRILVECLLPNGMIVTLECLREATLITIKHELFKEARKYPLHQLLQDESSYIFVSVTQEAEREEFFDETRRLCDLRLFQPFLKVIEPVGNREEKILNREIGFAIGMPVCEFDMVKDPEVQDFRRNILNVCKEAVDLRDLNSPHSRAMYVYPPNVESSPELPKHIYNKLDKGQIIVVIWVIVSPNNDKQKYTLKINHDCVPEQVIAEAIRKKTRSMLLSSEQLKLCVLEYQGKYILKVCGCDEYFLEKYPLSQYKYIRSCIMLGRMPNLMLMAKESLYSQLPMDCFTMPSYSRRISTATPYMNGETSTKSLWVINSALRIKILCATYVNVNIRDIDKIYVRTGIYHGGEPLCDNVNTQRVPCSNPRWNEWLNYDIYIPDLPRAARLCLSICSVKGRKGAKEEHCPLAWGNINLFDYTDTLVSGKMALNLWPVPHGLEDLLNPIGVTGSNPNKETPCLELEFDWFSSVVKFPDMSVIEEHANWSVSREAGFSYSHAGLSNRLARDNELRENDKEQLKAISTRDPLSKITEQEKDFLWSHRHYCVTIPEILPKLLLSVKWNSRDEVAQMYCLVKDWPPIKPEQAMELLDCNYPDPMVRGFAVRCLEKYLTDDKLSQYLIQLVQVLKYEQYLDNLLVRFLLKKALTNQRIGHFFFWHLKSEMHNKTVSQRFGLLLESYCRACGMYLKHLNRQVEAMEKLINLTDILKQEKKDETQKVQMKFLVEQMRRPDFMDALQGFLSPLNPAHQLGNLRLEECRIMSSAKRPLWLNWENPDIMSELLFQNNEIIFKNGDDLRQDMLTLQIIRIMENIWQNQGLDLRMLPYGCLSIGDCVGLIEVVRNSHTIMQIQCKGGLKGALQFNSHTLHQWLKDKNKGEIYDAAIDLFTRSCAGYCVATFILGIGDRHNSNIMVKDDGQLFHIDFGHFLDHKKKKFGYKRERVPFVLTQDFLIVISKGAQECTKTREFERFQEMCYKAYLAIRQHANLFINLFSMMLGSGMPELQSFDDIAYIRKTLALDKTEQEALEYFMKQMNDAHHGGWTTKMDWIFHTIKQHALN
Sequence of Serine/threonine-protein kinase tousled-like 2 (Homo sapiens) (Q86UE8 whole entry, looked up): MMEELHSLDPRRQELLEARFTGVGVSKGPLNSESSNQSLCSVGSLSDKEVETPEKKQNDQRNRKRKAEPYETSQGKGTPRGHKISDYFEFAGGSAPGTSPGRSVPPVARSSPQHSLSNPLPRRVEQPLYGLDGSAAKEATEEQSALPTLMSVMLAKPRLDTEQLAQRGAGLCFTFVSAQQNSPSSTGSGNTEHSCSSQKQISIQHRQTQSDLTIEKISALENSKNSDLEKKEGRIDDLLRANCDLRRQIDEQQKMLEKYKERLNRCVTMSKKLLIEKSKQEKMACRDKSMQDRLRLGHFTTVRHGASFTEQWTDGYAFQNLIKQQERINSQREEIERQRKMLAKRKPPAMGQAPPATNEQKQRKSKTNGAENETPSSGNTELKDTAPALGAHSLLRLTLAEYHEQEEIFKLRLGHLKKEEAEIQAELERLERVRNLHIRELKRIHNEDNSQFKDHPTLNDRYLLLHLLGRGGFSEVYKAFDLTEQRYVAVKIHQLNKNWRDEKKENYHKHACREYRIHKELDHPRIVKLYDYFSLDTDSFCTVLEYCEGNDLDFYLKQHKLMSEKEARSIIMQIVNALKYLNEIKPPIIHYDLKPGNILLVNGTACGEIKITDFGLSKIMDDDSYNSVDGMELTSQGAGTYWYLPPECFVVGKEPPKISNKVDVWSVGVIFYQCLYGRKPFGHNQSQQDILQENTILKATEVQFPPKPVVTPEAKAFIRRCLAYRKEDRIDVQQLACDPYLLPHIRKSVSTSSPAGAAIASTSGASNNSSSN
Sequence of SRSF protein kinase 2 (Homo sapiens) (P78362 whole entry, looked up): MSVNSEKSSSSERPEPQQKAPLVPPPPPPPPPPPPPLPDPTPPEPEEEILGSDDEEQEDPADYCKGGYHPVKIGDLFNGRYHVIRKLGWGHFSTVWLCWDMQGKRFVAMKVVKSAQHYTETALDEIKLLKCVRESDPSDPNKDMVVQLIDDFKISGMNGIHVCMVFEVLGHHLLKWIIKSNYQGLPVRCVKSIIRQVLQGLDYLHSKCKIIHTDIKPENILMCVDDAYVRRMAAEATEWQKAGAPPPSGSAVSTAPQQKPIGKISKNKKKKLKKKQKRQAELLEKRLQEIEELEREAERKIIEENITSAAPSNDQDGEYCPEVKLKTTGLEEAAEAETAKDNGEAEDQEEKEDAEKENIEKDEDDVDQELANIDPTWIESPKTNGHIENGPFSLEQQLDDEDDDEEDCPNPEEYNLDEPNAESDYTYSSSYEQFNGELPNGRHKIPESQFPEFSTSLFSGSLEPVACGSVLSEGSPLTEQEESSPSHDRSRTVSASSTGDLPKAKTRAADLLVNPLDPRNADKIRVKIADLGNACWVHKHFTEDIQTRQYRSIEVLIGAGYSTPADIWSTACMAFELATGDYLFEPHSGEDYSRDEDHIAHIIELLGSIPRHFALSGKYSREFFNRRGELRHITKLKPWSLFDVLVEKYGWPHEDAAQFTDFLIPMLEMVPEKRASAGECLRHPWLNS
Sequence of Interferon-induced, double-stranded RNA-activated protein kinase (Homo sapiens) (P19525 whole entry): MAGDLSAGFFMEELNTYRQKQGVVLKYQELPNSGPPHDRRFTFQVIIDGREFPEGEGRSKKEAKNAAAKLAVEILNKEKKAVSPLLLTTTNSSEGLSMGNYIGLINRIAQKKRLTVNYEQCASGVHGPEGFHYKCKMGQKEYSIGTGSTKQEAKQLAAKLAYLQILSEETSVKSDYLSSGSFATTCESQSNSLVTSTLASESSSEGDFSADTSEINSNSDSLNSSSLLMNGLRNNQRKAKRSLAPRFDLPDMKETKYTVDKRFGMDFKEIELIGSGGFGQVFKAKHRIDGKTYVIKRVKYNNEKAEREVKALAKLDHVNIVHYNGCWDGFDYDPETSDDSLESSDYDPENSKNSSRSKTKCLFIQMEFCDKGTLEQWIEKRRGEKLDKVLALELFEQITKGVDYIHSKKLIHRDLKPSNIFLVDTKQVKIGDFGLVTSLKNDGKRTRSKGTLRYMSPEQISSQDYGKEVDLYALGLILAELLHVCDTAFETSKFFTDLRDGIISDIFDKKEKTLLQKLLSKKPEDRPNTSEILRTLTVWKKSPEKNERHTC
Sequence of Serine/threonine-protein kinase TAO1 (Homo sapiens) (Q7L7X3 whole entry): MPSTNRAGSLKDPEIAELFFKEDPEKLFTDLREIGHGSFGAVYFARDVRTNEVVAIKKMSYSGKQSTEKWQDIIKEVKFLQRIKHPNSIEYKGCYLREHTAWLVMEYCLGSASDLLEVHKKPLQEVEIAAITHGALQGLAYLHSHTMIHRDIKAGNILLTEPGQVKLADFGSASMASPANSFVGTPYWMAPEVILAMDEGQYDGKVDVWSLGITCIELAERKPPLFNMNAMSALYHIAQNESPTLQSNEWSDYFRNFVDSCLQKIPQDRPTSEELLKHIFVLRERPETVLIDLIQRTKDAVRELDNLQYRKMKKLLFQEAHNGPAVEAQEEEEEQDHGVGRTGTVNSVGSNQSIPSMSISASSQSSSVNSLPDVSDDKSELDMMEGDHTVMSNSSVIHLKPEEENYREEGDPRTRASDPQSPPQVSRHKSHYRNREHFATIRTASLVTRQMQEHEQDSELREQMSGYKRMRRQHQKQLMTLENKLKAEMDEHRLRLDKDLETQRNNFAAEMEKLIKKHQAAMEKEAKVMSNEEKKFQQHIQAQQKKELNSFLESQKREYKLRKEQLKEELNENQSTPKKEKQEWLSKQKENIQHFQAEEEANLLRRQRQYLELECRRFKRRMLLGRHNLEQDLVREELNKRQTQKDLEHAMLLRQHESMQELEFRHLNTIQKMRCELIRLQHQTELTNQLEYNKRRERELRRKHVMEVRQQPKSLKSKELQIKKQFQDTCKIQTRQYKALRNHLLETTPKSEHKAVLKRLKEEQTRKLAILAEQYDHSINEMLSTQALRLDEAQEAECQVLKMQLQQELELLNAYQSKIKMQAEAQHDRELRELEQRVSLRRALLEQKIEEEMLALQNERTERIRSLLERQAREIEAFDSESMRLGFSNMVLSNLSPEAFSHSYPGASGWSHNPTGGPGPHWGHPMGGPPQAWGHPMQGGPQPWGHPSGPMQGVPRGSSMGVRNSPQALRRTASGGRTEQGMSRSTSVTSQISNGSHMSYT
Sequence of Tyrosine-protein kinase TXK (Homo sapiens) (P42681 whole entry): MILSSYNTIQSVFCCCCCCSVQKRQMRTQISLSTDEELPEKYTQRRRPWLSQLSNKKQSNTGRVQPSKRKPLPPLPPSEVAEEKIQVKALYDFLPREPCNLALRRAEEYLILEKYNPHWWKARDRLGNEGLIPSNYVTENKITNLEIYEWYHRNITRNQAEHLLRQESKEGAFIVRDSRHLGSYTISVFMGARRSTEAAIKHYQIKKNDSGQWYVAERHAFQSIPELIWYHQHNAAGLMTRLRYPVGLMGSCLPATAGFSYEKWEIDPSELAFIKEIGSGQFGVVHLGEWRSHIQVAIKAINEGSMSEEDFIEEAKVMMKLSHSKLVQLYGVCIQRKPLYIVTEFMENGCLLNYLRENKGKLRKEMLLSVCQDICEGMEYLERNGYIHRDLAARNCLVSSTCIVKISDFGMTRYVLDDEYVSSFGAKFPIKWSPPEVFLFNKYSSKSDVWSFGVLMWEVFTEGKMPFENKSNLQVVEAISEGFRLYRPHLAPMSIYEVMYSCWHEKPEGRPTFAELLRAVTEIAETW

COc1cccc(CNC(=O)c2nc3scc(COCc4ccc(C(=O)O)cc4)c3c(=O)[nH]2)c1 [T-26c]
inactive: residual activity [2] 100% | residual activity [3] 83% | residual activity [4] 62.4% | residual activity [5] 67.3% | residual activity [6] 100% | residual activity [7] 100% | residual activity [8] 90.7% | residual activity [9] 83.1% | residual activity [10] 98.9% | residual activity [11] 100% | residual activity [12] 86.5% | residual activity [13] 100% | residual activity [14] 90% | residual activity [15] 97.5% | residual activity [16] 81.3% | residual activity [17] 99.8% | residual activity [18] 100% | residual activity [19] 100% | residual activity [20] 71% | residual activity [21] 100% | residual activity [22] 83.8% | residual activity [23] 76.1% | residual activity [24] 63.7% | residual activity [25] 100% | residual activity [26] 97.7% | residual activity [27] 93.4% | residual activity [28] 84.9% | residual activity [29] 100% | residual activity [30] 100% | residual activity [31] 69.5% | residual activity [32] 94% | residual activity [33] 100% | residual activity [34] 100% | residual activity [35] 89.6% | residual activity [36] 81.8% | residual activity [37] 92.8% | residual activity [38] 87.7% | residual activity [39] 74.2% | residual activity [40] 100% | residual activity [41] 85.2% | inhibition [42] 15.8% | inhibition [43] 19% | inhibition [44] -5.4%
4.55 µM: Ki ([1]; read-out: Ki)
3.98 µM: Ki ([1]; read-out: pKi (converted))
